# How the values were obtained:
# [1] = tested on: subjects with relapsed or refractory CLL
# Description: The safety and efficacy of entospletinib was tested in a phase 2 trial in separate cohorts of subjects with CLL, indolent non-Hodgkin lymphoma (iNHL), mantle cell lymphoma (MCL), or diffuse large B-cell lymphoma (DLBCL). This trial was registered at www.clinicaltrials.gov as #NCT01799889.
# A phase 2, open-label, single-agent study was completed to evaluate the efficacy, safety, tolerability, and pharmacodynamics of entospletinib in subjects with relapsed or refractory hematologic malignancies.
# Subjects who were at least 18 years of age with a documented diagnosis of CLL, as established by the International Workshop on CLL, with progressive disease (PD) were eligible for the study. […] The presence of radiographically measurable lymphadenopathy or extranodal lymphoid malignancy as assessed by computed tomography (CT) or magnetic resonance imaging (MRI) was required for enrollment. […] A Karnofsky performance status of at least 60% and a life expectancy of at least 3 months were required. Required screening laboratory data were collected within 5 weeks before administration of study drug. Subjects with any degree of neutropenia, thrombocytopenia, or anemia attributed to the malignancy by the treating physician were eligible to enroll.
# Treatment with entospletinib was at a dose of 800 mg twice a day over 28-day cycles under fasted conditions. Fasting was defined as no food or liquids other than water for 2 hours pre- and 1 hour post-dose.
# CT or MRI scans were used to document sites of disease, identify target lesions, and assess response and disease progression. […] The findings of an independent review committee were used for analyses of PFS and other tumor control end points.
# Secondary end points included tolerability, objective response rate (ORR), duration of response (DOR), time to response, and lymph node response rate. […] Exploratory end points included plasma drug concentrations and pharmacodynamic biomarkers.
# PFS was defined as the interval from start of treatment to disease progression or death from any cause and analyzed using Kaplan-Meier methods. The findings of the Independent Review Committee (IRC) were considered primary for analyses of PFS and other tumor control responses. […] DOR was defined as the time from when the first response (CR or PR) was achieved until the earlier of the first documentation of definitive disease progression or death from any cause.
# CCL22 = assay: Example 2: serum chemokine/cytokine levels; assay type: in vivo, human; details: days 8 and 29 of therapy
# Description: (§1) A bone marrow biopsy and aspirate were collected for confirmatory purposes for all subjects who achieved a complete response (CR) or to confirm suspected PD based solely upon declines in the platelet count and/or hemoglobin. Pharmacodynamic assessments, including serum cytokines and protein phosphorylation in circulating CLL cells, occurred before starting therapy and at designated time points thereafter.
# [2] = tested on: tumor necrosis factor alpha (TNF-α); assay: Example 2: serum chemokine/cytokine levels; assay type: in vivo, human; details: days 8 and 29 of therapy
# Description: as §1
# [3] = tested on: CCL3/MIP1alpha, CCL4/MIP1beta, CCL22/MDC, and TNFalpha; assay: Example 1: plasma chemokine/cytokine levels by Luminex immunoassays; assay type: in vivo, human; details: Days 8 and 29 vs Day 1; CLL subjects (n=20)
# Description: FIG. 9 summarizes the inhibition of BCR-mediated chemokine/cytokines after treatment in CLL subjects.
# human subjects with CLL = assay: Example 1: investigator assessed nodal response in CLL subjects; assay type: in vivo; details: CLL subjects (n=29); 800 mg BID fasting
# Description: The sample size was 10-40/arm.
# CCL3 = assay: Example 2: serum levels of BCR-induced chemokines; assay type: in vivo, human; details: days 8 and 29 of treatment
# Description: as §1
# CCL4 = assay: Example 2: serum levels of BCR-induced chemokines; assay type: in vivo, human; details: days 8 and 29 of treatment
# Description: as §1
# [4] = tested on: human subjects with CLL or NHL; assay: Example 1: safety, disposition and adverse events (Safety Data Set);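 also: evaluated subjects had CLL, FL, DLBCL, MCL, LPL, SLL or MZL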
# Description: Subjects having various hematologic malignancies were evaluated, including subjects with chronic lymphocytic leukemia (CLL), follicular lymphoma (FL), diffuse large B-cell lymphoma (DLBCL), mantle cell lymphoma (MCL), lymphoplasmacytic lymphoma (LPL), small lymphocytic lymphoma (SLL), and marginal zone lymphoma (MZL). The sample size was 10-40/arm.
# Alanine aminotransferase (ALT) was also measured in the subjects.
# [5] = out of 78 subjects, 800 mg BID fasting
smiles,measurement,setting,value
"c1cn2cc(-c3ccc4cn[nH]c4c3)nc(Nc3ccc(N4CCOCC4)cc3)c2n1 [compound of formula I, 6-(1H-indazol-6-yl)-N-(4-morpholinophenyl)imidazo[1,2-a]pyrazin-8-amine]",DOR exceeded by seventy-five percent of subjects,[1]; 23 responding CLL subjects,> 6.5 months
same,median DOR,[1]; 23 responding CLL subjects,not yet been reached
same,subjects achieving at least a 50% decrease in SPD from baseline,[1]; 39 evaluable CLL subjects,61.5%
same,subjects achieving reduction in adenopathy,[1]; 39 evaluable CLL subjects,94.5%
same,subjects with a less than 50% decrease in SPD from baseline,[1]; 39 evaluable CLL subjects,33%
same,"Discontinued study drug: AEs, %",[1]; CLL N = 41,(8.8%)
same,"Discontinued study drug: Death, %",[1]; CLL N = 41,(2.4%)
same,"Discontinued study drug: Progressive disease, %",[1]; CLL N = 41,(34.1%)
same,PFS exceeded by seventy-five percent of the subjects,[1]; CLL cohort,> 5.4 months
same,"death (PFS event), %","[1]; CLL cohort, 41 subjects",2.4%
same,"subjects with PFS events, %","[1]; CLL cohort, 41 subjects",31.7%
same,"subjects with disease progression, %","[1]; CLL cohort, 41 subjects",29.3%
same,24 weeks PFS (primary end point),"[1]; CLL cohort, 41 subjects, median follow up 5.5 months",69.8%
same,Median PFS,"[1]; CLL cohort, median follow up 5.5 months",not yet been reached
same,ORR,[1]; CLL subjects,56.1%
same,subjects achieving a CR,[1]; CLL subjects,no subject
same,subjects achieving a PR,[1]; CLL subjects,23 subjects
same,subjects with dose reduced to 400 mg,[1]; CLL subjects,4.9%
same,subjects with dose reduced to 600 mg,[1]; CLL subjects,14.6%
same,subjects with progressive disease (best response),[1]; CLL subjects,2.4%
same,subjects with stable disease,[1]; CLL subjects,44%
same,time for mean absolute lymphocyte count to return to baseline,[1]; CLL subjects,approximately 3 months
same,"nodal response (50% reduction in SPD) with persistent lymphocytosis, %",[1]; CLL subjects with stable disease,4.9%
same,"nodal response with persistent lymphocytosis, subjects","[1]; CLL subjects, additional to ORR",2 subjects
same,subjects requiring at least one dose reduction from the starting dose,"[1]; CLL subjects, starting dose 800 mg twice a day",19.5%
same,mean absolute lymphocyte count,"[1]; day 8, rose from 50,090","72,980 lymphocytes per microliter"
same,responding subjects with a PR at the first post-baseline evaluation,"[1]; of 23 responding subjects, scheduled at week 8",65.2%
same,differences in ORR within subgroups,"[1]; sex, age, number of prior therapies, IGHV mutation status, 17p deletion/TP53 mutation status",no significant differences
same,Serum levels of CCL22,CCL22,inhibited
same,Serum levels of tumor necrosis factor alpha (TNF-α),[2],inhibited
same,"BCR-mediated chemokine/cytokines, plasma levels",[3],inhibition
same,overall nodal response rate,human subjects with CLL,69%
same,serum levels of BCR-induced CCL3,CCL3,Significant reductions
same,serum levels of BCR-induced CCL4,CCL4,Significant reductions
same,"Discontinuing study drug: Adverse Events, %",[4]; ALL N = 78,(14.1%)
same,"Discontinuing study drug: Progressive Disease, %",[4]; ALL N = 78,(19.2%)
same,"Discontinuing study drug: Related AEs, %",[4]; ALL N = 78,(7.7%)
same,"Discontinuing study drug: Adverse Events, %",[4]; CLL N = 39,(7.7%)
same,"Discontinuing study drug: Progressive Disease, %",[4]; CLL N = 39,(10.3%)
same,"Discontinuing study drug: Related AEs, %",[4]; CLL N = 39,(5.1%)
same,"Discontinuing study drug: Adverse Events, %",[4]; NHL N = 39,(20.5%)
same,"Discontinuing study drug: Progressive Disease, %",[4]; NHL N = 39,(28.2%)
same,"Discontinuing study drug: Related AEs, %",[4]; NHL N = 39,(10.3%)
same,"Any event, All Grades, %",[4]; Safety Data Set N=78,(93.6) %
same,"Constipation, All Grades, %",[4]; Safety Data Set N=78,(21.8) %
same,"Constipation, Grade 1",[4]; Safety Data Set N=78,11
same,"Constipation, Grade 2",[4]; Safety Data Set N=78,5
same,"Constipation, Grade 3",[4]; Safety Data Set N=78,1
same,"Cough, All Grades, %",[4]; Safety Data Set N=78,(14.1) %
same,"Cough, Grade 1",[4]; Safety Data Set N=78,9
same,"Cough, Grade 2",[4]; Safety Data Set N=78,1
same,"Cough, Grade 3",[4]; Safety Data Set N=78,1
same,"Decreased appetite, All Grades, %",[4]; Safety Data Set N=78,(20.5) %
same,"Decreased appetite, Grade 1",[4]; Safety Data Set N=78,10
same,"Decreased appetite, Grade 2",[4]; Safety Data Set N=78,6
same,"Diarrhea, All Grades, %",[4]; Safety Data Set N=78,(28.2) %
same,"Diarrhea, Grade 1",[4]; Safety Data Set N=78,20
same,"Diarrhea, Grade 2",[4]; Safety Data Set N=78,2
same,"Dizziness, All Grades, %",[4]; Safety Data Set N=78,(17.9) %
same,"Dizziness, Grade 1",[4]; Safety Data Set N=78,14
same,"Dyspepsia, All Grades, %",[4]; Safety Data Set N=78,(10.3) %
same,"Dyspepsia, Grade 1",[4]; Safety Data Set N=78,3
same,"Dyspepsia, Grade 2",[4]; Safety Data Set N=78,5
same,"Fatigue, All Grades, %",[4]; Safety Data Set N=78,(43.6) %
same,"Fatigue, Grade 1",[4]; Safety Data Set N=78,13
same,"Fatigue, Grade 2",[4]; Safety Data Set N=78,16
same,"Fatigue, Grade 3",[4]; Safety Data Set N=78,5
same,"Headache, All Grades, %",[4]; Safety Data Set N=78,(20.5) %
same,"Headache, Grade 1",[4]; Safety Data Set N=78,13
same,"Headache, Grade 2",[4]; Safety Data Set N=78,2
same,"Headache, Grade 3",[4]; Safety Data Set N=78,1
same,"Insomnia, All Grades, %",[4]; Safety Data Set N=78,(14.1) %
same,"Insomnia, Grade 1",[4]; Safety Data Set N=78,8
same,"Insomnia, Grade 2",[4]; Safety Data Set N=78,3
same,"Nausea, All Grades, %",[4]; Safety Data Set N=78,(30.8) %
same,"Nausea, Grade 1",[4]; Safety Data Set N=78,18
same,"Nausea, Grade 2",[4]; Safety Data Set N=78,4
same,"Nausea, Grade 3",[4]; Safety Data Set N=78,2
same,"Oedema peripheral, All Grades, %",[4]; Safety Data Set N=78,(12.8) %
same,"Oedema peripheral, Grade 1",[4]; Safety Data Set N=78,8
same,"Oedema peripheral, Grade 2",[4]; Safety Data Set N=78,2
same,"Pyrexia, All Grades, %",[4]; Safety Data Set N=78,(19.2) %
same,"Pyrexia, Grade 1",[4]; Safety Data Set N=78,9
same,"Pyrexia, Grade 2",[4]; Safety Data Set N=78,6
same,"Vomiting, All Grades, %",[4]; Safety Data Set N=78,(10.3) %
same,"Vomiting, Grade 1",[4]; Safety Data Set N=78,6
same,"Vomiting, Grade 2",[4]; Safety Data Set N=78,2
same,"Grade 3 and 4 reversible ALT elevations, % of subjects",[4]; [5],12%
same,"Grade 3 and 4 reversible ALT elevations, number of subjects",[4]; [5],9 subjects
